Results from ChEMBL document CHEMBL3734664, “Noncovalent Mutant Selective Epidermal Growth Factor Receptor Inhibitors: A Lead Optimization Case Study” (J Med Chem, 2015).
Converted amounts (≈) assume the structure as drawn.

Tests used:
Hepatocyte [1] = test: Stability in human hepatocytes; assay type: ADME, cell-based
Liver microsome [2] = test: Stability in human liver microsomes; assay type: ADME
[3] = Plasma clearance in rat at 1 mg/kg, iv; assay type: ADME, organism-based
Rattus norvegicus [4] = test: Unbound plasma clearance in rat at 1 mg/kg, iv; assay type: ADME, organism-based; settings: in vivo
[5] = biological target: T1, Epidermal growth factor receptor (Homo sapiens, UniProt P00533)
physchem = settings: buffer, pH 7.4, logD
Description: (§1) Lipophilicity, log D of the compound at pH 7.4 by microscale shake flask method

[6] = biological target: T2, Epidermal growth factor receptor (Homo sapiens, UniProt P00533, 746-750DEL/T790M); test: Inhibition of human EGFR T790M/del (746 to 750) deletion mutant using Fl-EEPLYWSFPAKKK-CONH2 as substrate preincubated for 30 mins followed by addition of substrate measured after 30 mins by Morrison plot analysis; assay type: protein assay; settings: read-out: Ki(app)
[7] = Plasma clearance in rat at 5 mg/kg, iv; assay type: ADME, organism-based
Rattus norvegicus [8] = test: Unbound plasma clearance in rat at 5 mg/kg, iv; assay type: ADME, organism-based; settings: in vivo
Liver microsome [9] = test: Drug metabolism in rat liver microsomes assessed as cis-3-Fluoro-1-{4-[2-((R)-1-hydroxyethyl)-1-((S)-2,2,2-trifluoro-1-methylethyl)-1Himidazo[4,5-c]pyridin-6-ylamino]pyrimidin-2-yl}piperidin-4-ol; assay type: ADME
Hepatocyte [10] = test: Drug metabolism in rat hepatocytes assessed as cis-3-Fluoro-1-{4-[2-((R)-1-hydroxyethyl)-1-((S)-2,2,2-trifluoro-1-methylethyl)-1Himidazo[4,5-c]pyridin-6-ylamino]pyrimidin-2-yl}piperidin-4-ol; assay type: ADME, cell-based
NCI-H1975 = test: Antiproliferative activity against human NCI-H1975 cells expressing EGFR T790M/L858R double mutant after 72 hrs by luminescence assay; assay type: functional, cell-based; settings: NCI-H1975, 72 h
NCI-H292 = test: Antiproliferative activity against human NCI-H292 cells expressing wild type EGFR after 72 hrs by luminescence assay; assay type: functional, cell-based; settings: NCI-H292, 72 h
[11] = Antiproliferative activity against erlotinib-resistant human PC9 cells expressing EGFR with ex19del and T790M mutations after 72 hrs by luminescence assay; assay type: functional, cell-based; settings: PC-9, 72 h
[12] = Half life in rat; assay type: ADME, organism-based; settings: in vivo
[13] = Volume of distribution at steady state in rat; assay type: ADME, organism-based; settings: in vivo, read-out: Vdss
[14] = Oral bioavailability in rat; assay type: ADME, organism-based; settings: in vivo
[15] = biological target: T2, Epidermal growth factor receptor; test: Inhibition of EGFR T790M/del (746 to 750) deletion mutant phosphorylation in erlotinib-resistant human PC9 cells preincubated for 1 hr followed by stimulation with EGF for 8 mins by electrochemiluminescent immunoassay; assay type: cell-based, PC-9
[16] = biological target: Epidermal growth factor receptor (Homo sapiens, UniProt P00533, L858R/T790M)
[17] = biological target: T1, Epidermal growth factor receptor; remark: listed apart in the source
Description: Inhibition of EGFR phosphorylation in human NCI-H292 cells preincubated for 1 hr followed by stimulation with EGF for 8 mins by electrochemiluminescent immunoassay

[18] = Plasma clearance in rat at 0.5 mg/kg, iv; assay type: ADME, organism-based
Rattus norvegicus [19] = test: Unbound plasma clearance in rat at 0.5 mg/kg, iv; assay type: ADME, organism-based; settings: in vivo
[20] = buffer, pH 7.4
Description: as §1

Homo sapiens = species: Homo sapiens; test: Selectivity ratio of Ki for human wild type EGFR to Ki for human EGFR T790M/L858R double mutant
[21] = Kinetic solubility of compound in PBS at pH 7.4 at 100 uM after 24 hrs; assay type: physicochemical; settings: read-out: Kinetic_solubility
[22] = Apparent permeability from apical to basolateral side in MDCK cells; assay type: ADME, cell-based, Canis lupus familiaris; settings: dog
[23] = Oral bioavailability in rat at 10 mg/kg; assay type: ADME, organism-based; settings: in vivo
[24] = Chemical stability under acidic conditions assessed as amide hydrolysis to acid form; assay type: physicochemical

Sequence of Epidermal growth factor receptor (Homo sapiens, UniProt P00533, L858R/T790M) (P00533 25-1210 T790M/L858R limits assumed): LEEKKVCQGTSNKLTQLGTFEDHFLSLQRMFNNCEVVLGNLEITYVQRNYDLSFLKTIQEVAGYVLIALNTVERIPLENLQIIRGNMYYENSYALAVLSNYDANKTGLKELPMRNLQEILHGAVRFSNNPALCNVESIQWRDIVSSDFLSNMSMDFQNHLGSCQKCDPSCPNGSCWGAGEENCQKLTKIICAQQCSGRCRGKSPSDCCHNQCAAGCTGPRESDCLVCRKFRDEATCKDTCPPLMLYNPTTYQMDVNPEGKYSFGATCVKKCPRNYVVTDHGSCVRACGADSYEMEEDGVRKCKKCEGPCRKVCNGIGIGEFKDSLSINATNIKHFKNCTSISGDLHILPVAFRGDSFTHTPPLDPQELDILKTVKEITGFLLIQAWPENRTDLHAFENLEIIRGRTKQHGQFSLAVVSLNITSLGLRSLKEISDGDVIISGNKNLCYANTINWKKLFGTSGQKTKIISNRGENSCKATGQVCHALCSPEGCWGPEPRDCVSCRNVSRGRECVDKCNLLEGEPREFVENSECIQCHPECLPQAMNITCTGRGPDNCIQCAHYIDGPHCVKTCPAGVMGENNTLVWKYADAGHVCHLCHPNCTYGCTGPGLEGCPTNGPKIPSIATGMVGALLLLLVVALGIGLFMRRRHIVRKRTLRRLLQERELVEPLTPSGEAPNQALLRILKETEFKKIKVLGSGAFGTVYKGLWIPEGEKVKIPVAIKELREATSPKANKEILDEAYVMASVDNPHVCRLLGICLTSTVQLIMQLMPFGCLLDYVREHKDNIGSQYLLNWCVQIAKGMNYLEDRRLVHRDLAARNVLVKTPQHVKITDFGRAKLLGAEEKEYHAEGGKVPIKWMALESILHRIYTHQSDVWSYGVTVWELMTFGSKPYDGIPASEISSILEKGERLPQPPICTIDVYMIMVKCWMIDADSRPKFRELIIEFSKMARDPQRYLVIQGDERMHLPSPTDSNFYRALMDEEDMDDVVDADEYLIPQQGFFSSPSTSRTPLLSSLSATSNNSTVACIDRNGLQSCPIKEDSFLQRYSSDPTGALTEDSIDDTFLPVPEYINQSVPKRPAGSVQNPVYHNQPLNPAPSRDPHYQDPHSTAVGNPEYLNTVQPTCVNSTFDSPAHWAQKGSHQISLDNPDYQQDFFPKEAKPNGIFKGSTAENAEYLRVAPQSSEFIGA
T1 sequence (P00533 whole entry): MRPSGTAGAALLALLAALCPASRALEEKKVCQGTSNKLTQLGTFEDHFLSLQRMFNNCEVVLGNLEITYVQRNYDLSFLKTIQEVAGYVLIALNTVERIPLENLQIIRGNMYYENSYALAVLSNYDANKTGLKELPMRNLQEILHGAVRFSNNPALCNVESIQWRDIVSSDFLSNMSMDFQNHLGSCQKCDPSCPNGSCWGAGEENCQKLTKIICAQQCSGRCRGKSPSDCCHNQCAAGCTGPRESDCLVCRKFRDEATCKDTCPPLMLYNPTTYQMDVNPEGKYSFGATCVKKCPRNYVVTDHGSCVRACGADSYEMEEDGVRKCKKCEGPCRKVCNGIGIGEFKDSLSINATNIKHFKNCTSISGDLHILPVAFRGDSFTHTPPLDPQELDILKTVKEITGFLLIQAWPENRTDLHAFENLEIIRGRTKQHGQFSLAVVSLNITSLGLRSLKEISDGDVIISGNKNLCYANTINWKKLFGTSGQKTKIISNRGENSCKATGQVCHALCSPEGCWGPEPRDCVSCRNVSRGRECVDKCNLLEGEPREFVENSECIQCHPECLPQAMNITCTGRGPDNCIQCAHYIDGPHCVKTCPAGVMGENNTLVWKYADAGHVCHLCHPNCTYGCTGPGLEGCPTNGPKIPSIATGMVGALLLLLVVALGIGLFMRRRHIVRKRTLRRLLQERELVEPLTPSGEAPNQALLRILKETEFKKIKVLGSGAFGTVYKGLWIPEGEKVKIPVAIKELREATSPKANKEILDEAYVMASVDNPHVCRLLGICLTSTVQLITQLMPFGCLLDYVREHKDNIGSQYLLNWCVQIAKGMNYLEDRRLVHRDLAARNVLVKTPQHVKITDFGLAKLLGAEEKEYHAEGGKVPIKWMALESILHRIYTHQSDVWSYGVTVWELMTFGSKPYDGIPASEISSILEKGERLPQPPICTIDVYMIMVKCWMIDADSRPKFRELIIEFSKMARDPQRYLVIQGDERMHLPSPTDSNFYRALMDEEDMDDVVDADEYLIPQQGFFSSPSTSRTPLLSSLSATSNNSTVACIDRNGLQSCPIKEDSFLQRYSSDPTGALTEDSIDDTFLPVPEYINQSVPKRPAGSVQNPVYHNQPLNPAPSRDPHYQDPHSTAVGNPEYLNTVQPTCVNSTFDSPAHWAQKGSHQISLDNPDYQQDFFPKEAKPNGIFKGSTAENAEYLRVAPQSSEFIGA
T2 sequence (P00533 whole entry, looked up, stated change not applied): as the sequence (P00533 whole entry) above

SMILES	Ki [5]	logD (physchem)	Ki [16]	other results
Cc1nc2cnc(Nc3ccnc(NCC(C)(C)S(C)(=O)=O)n3)cc2n1C(C)C	1820 nM	1.4	–	Stability (Hepatocyte [1]): Stable; Stability (Liver microsome [2]): Stable; clearance [3]: 158 mL/min/kg; CL free (Rattus norvegicus [4]): 707 mL/min/kg
CO[C@H]1CCN(c2nccc(Nc3cc4c(cn3)nc([C@@H](C)O)n4[C@H](C)C(F)(F)F)n2)C[C@H]1F	122 nM	2.2	1.1 nM	Ki [6]: 7 nM; clearance [7]: 23 mL/min/kg; CL free (Rattus norvegicus [8]): 334 mL/min/kg; Drug metabolism (Liver microsome [9]): metabolite_detected; Drug metabolism (Hepatocyte [10]): metabolite_detected; EC50 (NCI-H1975): 112 nM; EC50 (NCI-H292): 7800 nM; EC50 [11]: 90 nM; half-life [12]: 1.7 h; Vd [13]: 3.7 L/kg; bioavailability [14]: 85%; IC50 [15]: 27 nM; IC50 [17]: > 10000 nM
CO[C@H]1CCN(c2nccc(Nc3cc4c(cn3)nc(C)n4C(C)C)n2)C[C@@H]1F (racemic)	1840 nM	2.5	44 nM	–
CO[C@H]1CCN(c2nccc(Nc3cc4c(cn3)nc(CO)n4C(C)C)n2)C[C@H]1F (racemic)	150 nM	–	4.3 nM	clearance [3]: 107 mL/min/kg; CL free (Rattus norvegicus [4]): 584 mL/min/kg; EC50 (NCI-H1975): 880 nM; IC50 [17]: > 10000 nM
COC1CCN(c2nccc(Nc3cc4c(cn3)ncn4C3CCOC3)n2)CC1 (racemic)	–	1.8	149 nM	–
COC1(CO)CCN(c2nccc(Nc3cc4c(cn3)nc(C)n4C(C)C)n2)CC1	–	1.7	24 nM	Stability (Liver microsome [2]): Stable
COC1CCN(c2nccc(Nc3cc4c(cn3)nc(CO)n4C(C)C)n2)CC1	400 nM	2.3	19 nM	EC50 (NCI-H1975): 6500 nM
CC(C)n1cnc2cnc(Nc3ccnc(N4CCC(C(N)=O)CC4)n3)cc21	–	1.7	151 nM	–
COC1(CN(C)C)CCN(c2nccc(Nc3cc4c(cn3)nc(C)n4C(C)C)n2)CC1	–	1.5	492 nM	–
COC1CCN(c2nccc(Nc3cc4c(cn3)ncn4CC(F)(F)F)n2)CC1	–	2.8	71 nM	–
CO[C@H]1CCN(c2nccc(Nc3cc4c(cn3)nc(C)n4C(C)C)n2)C[C@H]1F (racemic)	1080 nM	2.3	2.7 nM	EC50 (NCI-H1975): 560 nM; IC50 [17]: > 10000 nM
Cc1nc2cnc(Nc3ccnc(N4CCC(O)CC4)n3)cc2n1C(C)C	–	1.8	34 nM	Stability (Hepatocyte [1]): Unstable
COC1(CCO)CCN(c2nccc(Nc3cc4c(cn3)nc(C)n4C(C)C)n2)CC1	–	2	50 nM	–
Cc1nc2cnc(Nc3ccnc(N4CC[C@H](O)C(F)(F)C4)n3)cc2n1C(C)C (racemic)	> 403 nM	2.6	9.5 nM	EC50 (NCI-H1975): 1700 nM; IC50 [17]: > 10000 nM
COC1CCN(c2nccc(Nc3cc4c(cn3)nc(C)n4C(C)C)n2)CC1	875 nM	2.4	19 nM	Stability (Hepatocyte [1]): Stable; clearance [7]: 40 mL/min/kg; CL free (Rattus norvegicus [8]): 620 mL/min/kg; EC50 (NCI-H1975): 6700 nM; Ratio Ki (Homo sapiens): 46; solubility kinetic at 24 h, 100 µM [21]: 87 µM (≈ 33.2 µg/mL); Papp A→B [22]: 29 ×10⁻⁶ cm/s; bioavailability [23]: 30%; IC50 [17]: > 10000 nM
COC1(CCN)CCN(c2nccc(Nc3cc4c(cn3)nc(C)n4C(C)C)n2)CC1	–	0.1	–	Stability (Liver microsome [2]): Stable
COC1CCN(c2nccc(Nc3cc4[nH]cnc4cn3)n2)CC1	1200 nM	1.9	–	EC50 (NCI-H1975): 7000 nM
Cc1nc2cnc(Nc3ccnc(N4CC[C@H](O)[C@H](F)C4)n3)cc2n1C(C)C (racemic)	910 nM	1.5	13 nM	clearance [7]: 90 mL/min/kg; CL free (Rattus norvegicus [8]): 545 mL/min/kg; EC50 (NCI-H1975): 1600 nM
Cc1nc2cnc(Nc3ccnc(NCC(C)(C)C(N)=O)n3)cc2n1C(C)C	390 nM	1.5	22 nM	Stability [24]: Unstable; clearance [18]: 250 mL/min/kg; CL free (Rattus norvegicus [19]): 909 mL/min/kg
Cc1nc2cnc(Nc3ccnc(N4CCC(S(C)(=O)=O)CC4)n3)cc2n1C(C)C	–	1.6	64 nM	Stability (Hepatocyte [1]): Stable; Stability (Liver microsome [2]): Stable; clearance [18]: 165 mL/min/kg; CL free (Rattus norvegicus [19]): 934 mL/min/kg
CCC(C)n1cnc2cnc(Nc3ccnc(N4CCC(OC)CC4)n3)cc21 (racemic; form 3)	–	–	22 nM	–
COC1CCN(c2nccc(Nc3cc4c(cn3)ncn4C3CCC3)n2)CC1	–	2.8	48 nM	–
Cc1nc2cnc(Nc3ccnc(N4CCC(C)(C(N)=O)C4)n3)cc2n1C(C)C (stereo unspecified)	681 nM	1.6	124 nM	Stability (Hepatocyte [1]): Stable; Stability (Liver microsome [2]): Stable
COC1CCN(c2nccc(Nc3cc4c(cn3)ncn4C3CCCCC3)n2)CC1	–	3.4	18 nM	–
CO[C@H]1CCN(c2nccc(Nc3cc4c(cn3)nc(CO)n4C(C)C)n2)C[C@@H]1F (racemic)	540 nM	–	57 nM	–

Now from value to molecule, other results behind:

Ki [5]	logD (physchem)	Ki [16]	SMILES	other results
> 2500 nM	2	–	Cc1nc2cnc(Nc3ccnc(/C=C/C(C)(C)O)n3)cc2n1C(C)C	clearance [18]: 50 mL/min/kg; CL free (Rattus norvegicus [19]): 200 mL/min/kg
–	2.8	14 nM	CCC(C)n1cnc2cnc(Nc3ccnc(N4CCC(OC)CC4)n3)cc21 (racemic; form 1)	–
–	2.7	27 nM	COC1CCN(c2nccc(Nc3cc4c(cn3)ncn4C(C)C(F)(F)F)n2)CC1 (racemic)	–
> 0.53 nM	1.6	16 nM	CC(C)n1c(CO)nc2cnc(Nc3ccnc(N4CC[C@H](O)[C@H](F)C4)n3)cc21 (racemic)	clearance [18]: 151 mL/min/kg; CL free (Rattus norvegicus [19]): 382 mL/min/kg; EC50 (NCI-H1975): > 10000 nM; IC50 [17]: > 10000 nM
> 1500 nM	2.2	196 nM	Cc1nc2cnc(Nc3ccnc(/C=C/C(C)(C)C(N)=O)n3)cc2n1C(C)C	Stability (Hepatocyte [1]): Stable; Stability (Liver microsome [2]): Stable
–	–	17 nM	CCC(C)n1cnc2cnc(Nc3ccnc(N4CCC(OC)CC4)n3)cc21 (racemic; form 2)	logD [20]: 2.9
2100 nM	1.6	52 nM	Cc1nc2cnc(Nc3ccnc(OCC(C)(C)S(C)(=O)=O)n3)cc2n1C(C)C	Stability (Hepatocyte [1]): Stable; Stability (Liver microsome [2]): Stable; clearance [18]: 53 mL/min/kg; CL free (Rattus norvegicus [19]): 156 mL/min/kg
–	2.1	76 nM	COC1CCN(c2nccc(Nc3cc4c(cn3)ncn4C3CCOCC3)n2)CC1	–
> 2500 nM	1.9	658 nM	Cc1nc2cnc(Nc3ccnc(SCC(C)(C)C(N)=O)n3)cc2n1C(C)C	–
–	2.9	–	COC1CCN(c2nccc(Nc3cc4c(cn3)ncn4C3CCCC3)n2)CC1	–
–	2.3	87 nM	COC1CCN(c2nccc(Nc3cc4c(cn3)ncn4C3CC3)n2)CC1	–
–	2.4	77 nM	COCC1(OC)CCN(c2nccc(Nc3cc4c(cn3)nc(C)n4C(C)C)n2)CC1	–
–	2.4	201 nM	CCn1cnc2cnc(Nc3ccnc(N4CCC(OC)CC4)n3)cc21	–
–	2.8	–	CO[C@H]1CCN(c2nccc(Nc3cc4c(cn3)nc(CO)n4C(C)C)n2)CC1(F)F (racemic)	EC50 (NCI-H1975): 2380 nM
